{"source": "ChEMBL document CHEMBL5338753", "about": "“Stapled Peptides as Direct Inhibitors of Nrf2-sMAF Transcription Factors” (J Med Chem, 2023)", "key": {"A549 [1]": {"tested_on": "A549", "test": "Synergistic antiproliferative activity against human A549 cells assessed as combination index at 25 uM incubated for 72 hrs in presence of 6 uM cisplatin by Chou-Talalay method", "assay_type": "functional"}, "A549 [2]": {"tested_on": "A549", "test": "Synergistic antiproliferative activity against human A549 cells assessed as combination index at 12.5 uM incubated for 72 hrs in presence of 6 uM cisplatin by Chou-Talalay method", "assay_type": "functional"}, "A549 [3]": {"tested_on": "A549", "test": "Synergistic antiproliferative activity against human A549 cells assessed as cell death at 50 uM incubated for 72 hrs in presence of 12 uM cisplatin by MTT assay (reference value: 66%)", "assay_type": "functional"}, "A549 [4]": {"tested_on": "A549", "test": "Antiproliferative activity against human A549 cells assessed as cell death at 50 uM incubated for 72 hrs by MTT assay relative to control", "assay_type": "functional"}, "A549 [5]": {"tested_on": "A549", "test": "Synergistic antiproliferative activity against human A549 cells assessed as combination index at 6.25 uM incubated for 72 hrs in presence of 12 uM cisplatin by Chou-Talalay method", "assay_type": "functional"}, "A549 [6]": {"tested_on": "A549", "test": "Synergistic antiproliferative activity against human A549 cells assessed as cell death at 1.563 uM incubated for 72 hrs in presence of 12 uM cisplatin by MTT assay (reference value: 66%)", "assay_type": "functional"}, "[7]": {"biological_target": "T1, Nuclear factor erythroid 2-related factor 2 (Homo sapiens) (UniProt Q16236)", "T1 sequence (whole entry)": "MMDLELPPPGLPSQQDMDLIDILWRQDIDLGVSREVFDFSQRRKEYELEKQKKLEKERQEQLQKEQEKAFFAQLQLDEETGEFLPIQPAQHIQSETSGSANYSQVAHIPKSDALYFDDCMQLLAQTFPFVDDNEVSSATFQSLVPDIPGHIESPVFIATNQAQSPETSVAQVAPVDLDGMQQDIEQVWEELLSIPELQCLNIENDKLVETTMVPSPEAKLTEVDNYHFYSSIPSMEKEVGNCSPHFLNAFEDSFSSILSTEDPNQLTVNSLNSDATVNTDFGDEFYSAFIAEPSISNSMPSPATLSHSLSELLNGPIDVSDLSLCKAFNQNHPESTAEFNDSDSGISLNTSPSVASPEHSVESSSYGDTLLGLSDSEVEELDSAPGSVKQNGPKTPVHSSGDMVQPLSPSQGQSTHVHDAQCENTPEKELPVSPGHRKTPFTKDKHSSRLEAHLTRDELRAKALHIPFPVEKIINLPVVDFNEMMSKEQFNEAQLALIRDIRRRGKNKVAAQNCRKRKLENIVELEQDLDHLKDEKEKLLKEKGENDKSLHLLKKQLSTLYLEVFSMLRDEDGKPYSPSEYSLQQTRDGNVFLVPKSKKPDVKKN", "test": "Inhibition of Nrf2 transcriptional activity in human A549 cells assessed as reduction in glutathione level at 50 to 100 uM incubated for 24 hrs by GSH-Glo glutathione assay", "assay_type": "cell-based", "settings": "dose 50-100 µM"}, "A549 [8]": {"tested_on": "A549", "test": "Synergistic antiproliferative activity against human A549 cells assessed as cell death at 6.25 uM incubated for 72 hrs in presence of 6 uM cisplatin by MTT assay (reference value: 46%)", "assay_type": "functional"}, "A549 [9]": {"tested_on": "A549", "test": "Synergistic antiproliferative activity against human A549 cells assessed as combination index at 3.125 uM incubated for 72 hrs in presence of 12 uM cisplatin by Chou-Talalay method", "assay_type": "functional"}, "A549 [10]": {"tested_on": "A549", "test": "Downregulation of TXN mRNA level in human A549 cells at 50 uM incubated for 72 hrs by qPCR assay", "assay_type": "functional, cell-based"}, "A549 [11]": {"tested_on": "A549", "test": "Synergistic antiproliferative activity against human A549 cells assessed as combination index at 6.25 uM incubated for 72 hrs in presence of 6 uM cisplatin by Chou-Talalay method", "assay_type": "functional"}, "A549 [12]": {"tested_on": "A549", "test": "Synergistic antiproliferative activity against human A549 cells assessed as cell death at 100 uM incubated for 72 hrs in presence of 6 uM cisplatin by MTT assay (reference value: 46%)", "assay_type": "functional"}, "A549 [13]": {"tested_on": "A549", "test": "Synergistic antiproliferative activity against human A549 cells assessed as cell death at 25 uM incubated for 72 hrs in presence of 6 uM cisplatin by MTT assay (reference value: 46%)", "assay_type": "functional"}, "[14]": {"test": "Stability of compound assessed as proteinase K (unknown origin) mediated compound degradation at 55 uM measured upto 24 hrs by LC/MS analysis", "assay_type": "ADME", "settings": "human"}, "NRF2-MAFG (Homo sapiens)": {"biological_target": "NRF2-MAFG (Homo sapiens) (UniProt Q16236+O15525)", "test": "Inhibition of human Nrf2/MafG heterodimerization expressed in Escherichia coli Rosetta (DE3) by Split-luciferase assay", "settings": "dose 1.56-100 µM"}, "A549 [15]": {"tested_on": "A549", "test": "Synergistic antiproliferative activity against human A549 cells assessed as cell death at 6.25 uM incubated for 72 hrs in presence of 12 uM cisplatin by MTT assay (reference value: 66%)", "assay_type": "functional"}, "A549 [16]": {"tested_on": "A549", "test": "Synergistic antiproliferative activity against human A549 cells assessed as combination index at 1.563 uM incubated for 72 hrs in presence of 6 uM cisplatin by Chou-Talalay method", "assay_type": "functional"}}, "note": "Active and inactive are the calls of the source. The rule behind the calls is not given here. Positions of bridges follow the written chain, without caps; N, C: chain ends. Non-standard residues stand in square brackets, D forms with d. Residues, ends and D or L forms follow the SMILES beside them. R5 = C=CCCC[C@@](C)(N)C(=O)O", "data": [{"molecule": "CC[C@H](C)[C@H](NC(C)=O)C(=O)N[C@H](C(=O)N[C@@H](CCC(=O)O)C(=O)N[C@@H](CC(C)C)C(=O)N[C@@H](CCC(=O)O)C(=O)N[C@]1(C)CCC/C=C\\CCC[C@](C)(C(=O)N[C@@H](CC(C)C)C(=O)N[C@@H](CCCCN)C(=O)N[C@@H](CC(=O)O)C(=O)N[C@@H](CCC(=O)O)C(=O)N[C@@H](CCCCN)C(=O)N[C@@H](CCC(=O)O)C(N)=O)NC(=O)[C@H](CC(=O)O)NC(=O)[C@H](CC(C)C)NC(=O)[C@H](CC(=O)O)NC1=O)C(C)C", "note": "(Ac-IVELE[R5]DLD[R5]LKDEKE-NH2; staple (Z) 6-10)", "values": [{"measurement": "CI", "setting": "A549 [1]", "result": 0.51}, {"measurement": "CI", "setting": "A549 [2]", "result": 0.57}, {"measurement": "Activity", "setting": "A549 [3]", "result": 93, "unit": "%"}, {"measurement": "Activity", "setting": "A549 [4]", "result": 34, "unit": "%"}, {"measurement": "CI", "setting": "A549 [5]", "result": 0.57}, {"measurement": "Activity", "setting": "A549 [6]", "result": 67, "unit": "%"}, {"measurement": "inhibition", "setting": "[7]", "result": "Active"}, {"measurement": "Activity", "setting": "A549 [8]", "result": 59, "unit": "%"}, {"measurement": "CI", "setting": "A549 [9]", "result": 0.82}, {"measurement": "Activity", "setting": "A549 [10]", "result": "Active"}, {"measurement": "CI", "setting": "A549 [11]", "result": 0.67}, {"measurement": "Activity", "setting": "A549 [12]", "result": 76, "unit": "%"}, {"measurement": "Activity", "setting": "A549 [13]", "result": 68, "unit": "%"}, {"measurement": "Stability", "setting": "[14]", "result": "Unstable"}, {"measurement": "inhibition", "setting": "NRF2-MAFG (Homo sapiens)", "result": "Dose-Dependent Effect"}, {"measurement": "Activity", "setting": "A549 [15]", "result": 79, "unit": "%"}, {"measurement": "CI", "setting": "A549 [16]", "result": 0.89}]}]}
